pEC50: −log10 of the molar value.
Assay: Assay Measuring Activity of Test Compounds on Viral Production from HepAD38 Cells: HepAD38 cells grown in a T-150 flask (Corning, cat #: 430825) with Growth Medium (DMEM/F12 (1:1) (Hyclone, cat #: SH30023.02), 1× Pen/Strep (Invitrogen, cat #: 15140-122), 10% FBS (Tissue Culture Biologics, cat #: 101), 250 μg/mL G418 (Alfa Aesar, cat #: J62671), 1 μg/mL Tetracycline (Teknova, cat #: T3320)) were detached with 0.25% trypsin-EDTA to (Invitrogen, cat #: 25200-056). Tetracycline-free treatment medium (15 mL DMEM/F12 (1:1) 1× Pen/step, with 2% FBS, Tet-system approved (Clontech, cat #: 631106) were then added to mix, transferred into a 50 ml conical tube (Falcon, cat #: 21008-918,) and spun at 1300 rpm for 5 min. Pelleted cells were then re-suspended/washed with 50 mL of 1×DPBS (Invitrogen, cat #: 14190-136) 2 times and 50 mL treatment medium twice. HepAD38 cells were then re-suspended with 10 mL of treatment medium, syringed and counted. Wells of 96-well clear bottom TC plate (Corning, cat #: 3904,) were seeded at 50,000 cells/well in 180 μL of treatment medium, and 20 μL of either 10% DMSO (Sigma, cat #: D4540) as controls or a 10× solution of test compounds in 10% DMSO in treatment media was added for a final compound concentration starting at 10 μM, and plates were incubated in 5% CO2 incubator at 37° C. for 5 days.Subsequently viral load production was assayed by quantitative PCR (qPCR) of the HBV core sequence. PCR reaction mixture containing forward primers HBV-f 5′-CTGTGCCTTGGGTGGCTTT-3′ (IDT DNA), Reverse primers HBV-r 5′-[…]-3′ (IDT DNA), Fluorescent TaqMan™ Probes HBV-probe 5′-FAM/AGCTCCAAA/ZEN/[…]/3IABkFQ-3′ (IDT DNA), 10 μL/well of PerfeCTa® qPCR ToughMix® (Quanta Biosciences, Cat #: 95114-05K), and 6 μL/well of DEPC water (Alfa Aesar, cat #: J62087) was prepared. […] of supernatant was added to 16 μL of the reaction mixture in a qPCR plate (Applied Biosytems, Cat #: 4309849), sealed with a film (Applied Biosystems, Cat #: 4311971), centrifuged for a few seconds, and subsequently run on an Applied Biosystems VIIA7. The PCR mixture was incubated at 45° C. for 5 min, then 95° C. for 10 min, followed by 40 cycles of 10 seconds at 95° C. and 20 seconds at 60° C. Viral load was quantified against known HBV DNA standards by using ViiA™ 7 Software. Viral load in the supernatant from wells with treated cells were compared against viral load in supernatant from DMSO control wells (>3 per plate). Cell viability assay was performed with CellTiter-Glo Luminescent Cell Viability Assay (Promega, cat #: G7573) with modification. Mixed appropriate amount of CellTiter-Glo (CTG) 1×DPBS in a 1:1 ratio, added 100 uL of the mixture to each well followed completely removal of all supernatant in each well without touching cell surface. Incubated the plate at room temperature for 10 min on an orbital shaker, and then read the plate with a plate reader (TECAN M1000 or Envision).
Settings: HePAD38

Compound	pEC50	EC50
Cn1nc([C@@H]2CC3CC(O)(CS(=O)(=O)CCO)C[C@H]3C2)c(C(=O)Nc2ccc(F)c(Cl)c2)c1N (some centres not stated)	> 7.00	–
Cn1nc([C@@H]2CC3CC(O)(CSC(C)(C)C)C[C@@H]3C2)c(C(=O)Nc2ccc(F)c(Cl)c2)c1N (some centres not stated)	> 7.00	–
Cn1nc([C@@H]2CC3CC(O)(C[S+]([O-])CC(F)(F)F)C[C@H]3C2)c(C(=O)Nc2ccc(F)c(Cl)c2)c1N (some centres not stated)	> 7.00	–
Cn1cc([C@@H]2CC[C@@H](c3nn(C)c(N)c3C(=O)Nc3ccc(F)c(Cl)c3)C2)cn1	–	in the range around 300 nM
Cn1nc(C2CC3CNCC3C2)c(C(=O)Nc2ccc(F)c(Cl)c2)c1N (configuration not stated)	–	in the range around 5250 nM
CC(C)OCC1(O)CC2C[C@@H](c3nn(C)c(N)c3C(=O)Nc3ccc(F)c(Cl)c3)C[C@@H]2C1 (some centres not stated)	–	in the range around 300 nM
Cn1nc([C@@H]2CC3CC(O)(CSCCO)C[C@@H]3C2)c(C(=O)Nc2ccc(F)c(Cl)c2)c1N (some centres not stated)	> 7.00	–
Cn1nc([C@@H]2CC3CC(O)(CSC(C)(C)C)C[C@H]3C2)c(C(=O)Nc2ccc(F)c(Cl)c2)c1N (some centres not stated)	> 7.00	–
Cn1nc(C2CC3CC(O)(COCC(F)(F)F)CC3C2)c(C(=O)Nc2ccc(F)c(Cl)c2)c1N (configuration not stated)	> 7.00	–
Cn1nc([C@@H]2CC3CC(O)(CS(=O)(=O)C4CC4)C[C@@H]3C2)c(C(=O)Nc2ccc(F)c(Cl)c2)c1N (some centres not stated)	> 7.00	–
CCOC(=O)c1c(C2CCC(c3ccccc3)C2)noc1N (configuration not stated)	–	in the range around 300 nM
Cn1nc(C2CC3CC(O)(C(C)(C)O)CC3C2)c(C(=O)Nc2ccc(F)c(Cl)c2)c1N (configuration not stated)	> 7.00	–
Cn1nc(C2CC3CNC(=O)CC3C2)c(C(=O)Nc2ccc(F)c(Cl)c2)c1N (configuration not stated)	> 7.00	–
Cn1cc([C@H]2CC[C@H](c3nn(C)c(N)c3C(=O)Nc3ccc(F)c(Cl)c3)C2)cn1	–	in the range around 300 nM
Cn1nc([C@@H]2CC3CC(O)(CSCC(F)(F)F)C[C@@H]3C2)c(C(=O)Nc2ccc(F)c(Cl)c2)c1N (some centres not stated)	> 7.00	–
Cn1nc([C@@H]2CC3CC(O)(CS(=O)(=O)C(C)(C)C)C[C@H]3C2)c(C(=O)Nc2ccc(F)c(Cl)c2)c1N (some centres not stated)	> 7.00	–
Cn1nc(C2CC3CC(N4CCC4)CC3C2)c(C(=O)Nc2ccc(F)c(Cl)c2)c1N (configuration not stated)	–	in the range around 300 nM
Cn1nc([C@@H]2CC3CC(O)(CS(=O)(=O)C4CC4)C[C@H]3C2)c(C(=O)Nc2ccc(F)c(Cl)c2)c1N (some centres not stated)	> 7.00	–
Cn1nc([C@@H]2CC3CC(O)(CSCC(F)(F)F)C[C@H]3C2)c(C(=O)Nc2ccc(F)c(Cl)c2)c1N (some centres not stated)	> 7.00	–

Compound	pEC50	EC50
CCC1OC[C@]2(CC3C[C@H](c4nn(C)c(N)c4C(=O)Nc4ccc(F)c(Cl)c4)C[C@@H]3C2)O1 (some centres not stated)	> 7.00	–
CC(C)OCC1(O)CC2C[C@@H](c3nn(C)c(N)c3C(=O)Nc3ccc(F)c(Cl)c3)C[C@H]2C1 (some centres not stated)	–	in the range around 5250 nM
CCN(CC)C1CC2CC(c3nn(C)c(N)c3C(=O)Nc3ccc(F)c(Cl)c3)CC2C1 (configuration not stated)	–	in the range around 300 nM
Cn1nc(C2CC3CC(NCCO)CC3C2)c(C(=O)Nc2ccc(F)c(Cl)c2)c1N (configuration not stated)	–	in the range around 300 nM
Cn1nc([C@@H]2CC3CC(O)(CSCCN4CCOCC4)C[C@H]3C2)c(C(=O)Nc2ccc(F)c(Cl)c2)c1N (some centres not stated)	> 7.00	–
Cn1nc(C2CC3CC(N4CCCC4)CC3C2)c(C(=O)Nc2ccc(F)c(Cl)c2)c1N (configuration not stated)	> 7.00	–
Cn1nc([C@@H]2CC3CC(O)(CC(=O)O)C[C@@H]3C2)c(C(=O)Nc2ccc(F)c(Cl)c2)c1N (some centres not stated)	> 7.00	–
Cn1nc(C2CC3CC4(CNC(=O)C4)CC3C2)c(C(=O)Nc2ccc(F)c(Cl)c2)c1N (configuration not stated)	> 7.00	–
CC(C)N1CC2CC(c3nn(C)c(N)c3C(=O)Nc3ccc(F)c(Cl)c3)CC2C1 (configuration not stated)	–	in the range around 5250 nM
CCC1OCC2(CC3C[C@H](c4nn(C)c(N)c4C(=O)Nc4ccc(F)c(Cl)c4)C[C@@H]3C2)O1 (some centres not stated)	> 7.00	–
CCS(=O)(=O)CC1(O)CC2C[C@@H](c3nn(C)c(N)c3C(=O)Nc3ccc(F)c(Cl)c3)C[C@@H]2C1 (some centres not stated)	> 7.00	–
CN(C)S(=O)(=O)CC1(O)CC2CC(c3nn(C)c(N)c3C(=O)Nc3ccc(F)c(Cl)c3)CC2C1 (configuration not stated)	> 7.00	–
Cn1nc(C2CC3CSCC3C2)c(C(=O)Nc2ccc(F)c(Cl)c2)c1N (configuration not stated)	> 7.00	–
Cn1nc([C@@H]2CC3CC(O)(CS(=O)(=O)CCO)C[C@@H]3C2)c(C(=O)Nc2ccc(F)c(Cl)c2)c1N (some centres not stated)	> 7.00	–
CCS(=O)(=O)CC1(O)CC2C[C@@H](c3nn(C)c(N)c3C(=O)Nc3ccc(F)c(Cl)c3)C[C@H]2C1 (some centres not stated)	> 7.00	–
Cn1nc([C@@H]2CC3C[S+]([O-])C[C@@H]3C2)c(C(=O)Nc2ccc(F)c(Cl)c2)c1N (some centres not stated)	–	in the range around 5250 nM
CCC1OCC2(CC3C[C@H](c4nn(C)c(N)c4C(=O)Nc4ccc(F)c(Cl)c4)C[C@H]3C2)O1 (some centres not stated)	> 7.00	–
Cn1nc(C2CC3CC(O)(CC(=O)O)CC3C2)c(C(=O)Nc2ccc(F)c(Cl)c2)c1N (configuration not stated)	> 7.00	–
Cn1nc([C@@H]2CC3CNC(=O)C[C@@H]3C2)c(C(=O)Nc2ccc(F)c(Cl)c2)c1N (some centres not stated)	–	in the range around 300 nM

Compound	pEC50	EC50
Cn1nc([C@@H]2CC3CC(O)(CS(C)(=O)=O)C[C@@H]3C2)c(C(=O)Nc2ccc(F)c(Cl)c2)c1N (some centres not stated)	> 7.00	–
Cn1nc(C2CC3CC(O)(COC(F)F)CC3C2)c(C(=O)Nc2ccc(F)c(Cl)c2)c1N (configuration not stated)	> 7.00	–
Cn1nc([C@@H]2CC3CC(O)(CSCCN4CCOCC4)C[C@@H]3C2)c(C(=O)Nc2ccc(F)c(Cl)c2)c1N (some centres not stated)	> 7.00	–
CC(C)C1(O)CC2C[C@@H](c3nn(C)c(N)c3C(=O)Nc3ccc(F)c(Cl)c3)C[C@H]2C1O (some centres not stated)	> 7.00	–
Cn1nc(C2CC3CC(N)CC3C2)c(C(=O)Nc2ccc(F)c(Cl)c2)c1N (configuration not stated)	–	in the range around 300 nM
Cn1nc([C@@H]2CC3CC(O)(C[S+]([O-])CC(F)(F)F)C[C@@H]3C2)c(C(=O)Nc2ccc(F)c(Cl)c2)c1N (some centres not stated)	> 7.00	–
Cn1nc([C@@H]2CC3CC(O)(CS(C)(=O)=O)C[C@H]3C2)c(C(=O)Nc2ccc(F)c(Cl)c2)c1N (some centres not stated)	> 7.00	–
Cn1nc(C2CC3CC(N4CCNC(=O)C4)CC3C2)c(C(=O)Nc2ccc(F)c(C#N)c2)c1N (configuration not stated)	> 7.00	–
Cn1nc([C@@H]2CC3CC(O)(CS(=O)(=O)CCCN4CCCCC4)C[C@H]3C2)c(C(=O)Nc2ccc(F)c(Cl)c2)c1N (some centres not stated)	–	in the range around 300 nM
Cn1nc([C@H]2CC3CC(O)(C[S+]([O-])CC(F)(F)F)C[C@H]3C2)c(C(=O)Nc2ccc(F)c(Cl)c2)c1N (some centres not stated)	> 7.00	–
CN1CC2CC(c3nn(C)c(N)c3C(=O)Nc3ccc(F)c(Cl)c3)CC2C1 (configuration not stated)	–	in the range around 5250 nM
CS(=O)(=O)CC1(O)CC2CC(c3n[nH]c(N)c3C(=O)Nc3ccc(F)c(Cl)c3)CC2C1 (configuration not stated)	> 7.00	–
Cn1nc([C@@H]2CC3CC(O)(CSCCO)C[C@H]3C2)c(C(=O)Nc2ccc(F)c(Cl)c2)c1N (some centres not stated)	> 7.00	–
Cn1nc([C@@H]2CC3CC(O)(CC(=O)O)C[C@H]3C2)c(C(=O)Nc2ccc(F)c(Cl)c2)c1N (some centres not stated)	> 7.00	–
Cn1nc([C@H]2CC3CC(O)(C[S+]([O-])CC(F)(F)F)C[C@@H]3C2)c(C(=O)Nc2ccc(F)c(Cl)c2)c1N (some centres not stated)	> 7.00	–
CNC1CC2CC(c3nn(C)c(N)c3C(=O)Nc3ccc(F)c(Cl)c3)CC2C1 (configuration not stated)	–	in the range around 300 nM
Cn1nc([C@@H]2CC3CC(O)(CS(=O)(=O)C(C)(C)C)C[C@@H]3C2)c(C(=O)Nc2ccc(F)c(Cl)c2)c1N (some centres not stated)	> 7.00	–
Cn1nc(C2CCC(c3cccnc3)C2)c(C(=O)Nc2ccc(F)c(Cl)c2)c1N (configuration not stated)	> 7.00	–
Cn1nc([C@@H]2CC3C[S+]([O-])C[C@H]3C2)c(C(=O)Nc2ccc(F)c(Cl)c2)c1N (some centres not stated)	–	in the range around 5250 nM
